From PMC8199613, “Discovery of Novel Small-Molecule Inhibitors of PD-1/PD-L1 Interaction via Structural Simplification Strategy” (Molecules, 2021) come the findings set out here.

pIC50, pKd: −log10 of the molar value. Converted amounts (≈) assume the structure as drawn. “Also recorded” adds a separate entry of the source.

The target in one series is T1, PD-1/PD-L1 interaction (Homo sapiens, UniProt Q9NZQ7).
T1 construct: purchased Cisbio 64ICP01PEG
Description: HTRF-based PD-1/PD-L1 binding assay. A general note: In TR-FRET formats the signal depends on donor and acceptor labels being close together.

Another series relates to MDA-MB-231 cells. Description: MTT non-specific cytotoxicity assay, MDA-MB-231. The format is cell-based. As to the method: (§1) Considering that the toxicity of the compound might strongly interfere with the assay if the tested compounds could block PD-1/PD-L1 interaction to activate T cells for killing tumors, we examined their cell toxicities of MDA-MB-231 and Jurkat T cells in MTT assay. […] Furthermore, Jurkat T cells were used to simulate primary T cells for investigating the immune toxicity of the treated compounds with the regular concentrations within 48 h.
(§2) The MDA-MB-231 and Jurkat cell line was provided by the Chinese Academy of Sciences Cell Bank. The cytotoxicity of the test compounds was determined using the MTT assay. Briefly, MDA-MB-231 and Jurkat cells were incubated at 37 °C in a humidified 5% CO2 incubator for 24 h in 96-microwell plates. Then, 100 μL of culture medium containing the test compounds at different concentrations was added to each well and incubated at 37 °C for another 48 h. The MTT was added and incubated for another 4 h, and the optical density was detected with a microplate reader at 570 nm. The IC50 values were calculated according to the dose-dependent curves.

Another series can be described thus: Water solubility by HPLC. The format is physicochemical. The note with it: aqueous buffer, thermodynamic from solid, pH 7.4, PBS. As to the method: The aqueous solubility was estimated by HPLC. The HPLC analysis was performed on a Shimadzu LC-20AT machine with a BDS Hypersil C18 column, and the column temperature was at 28 °C. Mobile phase B (100% MeOH) and mobile phase A (100% water) were used in a gradient elution program (0 min: 30% (B), 2 min: 50% (B), 8 min: 95% (B), 14 min: 95% (B), 18 min: 70% (B), 20 min: 30% (B)) with a flow rate of 1.0 mL/min at […]. Methanol was used to configure an accurate compounds concentration to calculate the standard curve. The excess test compound was dissolved in PBS (KH2PO4 0.24 g + KCl 0.2 g + NaCl 8 g + Na2HPO4·12H2O 3.58 g + 1 L water) and then analyzed by HPLC.

A further series addresses hPD-L1 (Homo sapiens, UniProt Q9NZQ7). Description: SPR binding affinity assay (Biacore T200). As to the method: To provide definitive evidence of direct binding to PD-L1 with small-molecule inhibitors, an SPR-based binding assay was performed using Biacore T200 instrument, which facilitates measurement of the kinetic parameters of ligand–protein complex formation. In this determination, hPD-L1/Fc was loaded on a Series S Sensor Chip Protein A. A9 and A15, with similar bioactivities in HTRF assay, were gradually subjected to this assay, and their kinetic parameters and the binding affinities were determined with the aid of Biacore evaluation software.
SPR analysis was carried out according to the method described by a previous article. The kinetic analysis for the interaction of small molecules with hPD-L1 was performed on a Biacore T200 (GE Healthcare Bio-sciences, Uppsala, Sweden) using Series S Sensor Chip Protein A (GE Healthcare Bio-sciences, Uppsala, Sweden, catalog # 29139131-AA). Briefly, Fc-hPD-L1 (Acro Biosystems, Cambridge, MA, USA, catalog #PD1-H5258) was diluted using 1 × PBS-P^+ buffer (phosphate buffer 1×, GE Healthcare Bio-sciences, catalog # 28-9950-84, enriched with 0.05% surfactant P20) containing 5% DMSO (Sigma-Aldrich, St. Louis, MO, America, catalog # D4540) and captured as the ligand (i.e., the target of small molecules) on protein A chip surface following Biacore T200 build-in protocol for kinetic/affinity analysis at a concentration of 10 μg/mL. The contact time and flow rates were set as 120 s and 10 μL/min for the ligand capture. Each experiment was performed using a pair of flow cells, one with ligand captured and the other kept as reference. A concentration gradient of analytes was freshly prepared in 1× PBS-P^+ buffer with 5% DMSO with at least five concentrations, and the concentration range was optimized according to different analytes. Analytes could flow through both ligand-captured flow cells and reference flow cells at the same rate (30 μL/min) and contact time (90 s). Solvent correction was included to avoid the impact of DMSO on surface plasmon effect during binding analysis. Extra washing of the flow system using 50% DMSO in 1×PBS-P^+ buffer was allowed to control carry over effects. For the regeneration of surface after each cycle (one-time ligand capture and binding of analyte at a single concentration) was carried out using 10 mM glycine pH 1.5 (GE Healthcare Bio-sciences, Uppsala, Sweden, catalog #BR-1003-54) at a flow rate of 30 μL/min for 30 s. Kinetic analysis was performed at 25 °C. Maximum binding response (Rmax) and equilibrium dissociation […] (KD) values were calculated using Biacore T200 Evaluation software following the 1:1 binding model.
In general terms: In SPR one partner is held on a chip, and binding of the other changes the refractive index at the surface.

The test system of series [1] is Hep3B/OS-8/hPD-L1 and CD3+ T cells co-culture. Description: IFN-γ production in Hep3B/OS-8/hPD-L1 and CD3+ T cell co-culture assay.
The next series relates to Jurkat T cells. Description: MTT non-specific cytotoxicity assay, Jurkat. The format is cell-based. As to the method:
as §1, §2

T1 sequence (Q9NZQ7 19-238 limits assumed): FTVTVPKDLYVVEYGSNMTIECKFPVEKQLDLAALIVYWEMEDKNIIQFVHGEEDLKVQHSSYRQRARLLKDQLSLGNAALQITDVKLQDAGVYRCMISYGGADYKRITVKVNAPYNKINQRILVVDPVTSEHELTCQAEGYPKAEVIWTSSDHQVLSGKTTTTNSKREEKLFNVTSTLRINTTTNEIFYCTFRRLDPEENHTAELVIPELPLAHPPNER
Chain of hPD-L1 (Q9NZQ7 19-238 limits assumed): as above

Regarding `COc1nc(-c2cccc(-c3ccccc3F)c2C)ccc1CNCCC(N)=O` [Compound A9, 3-(((6-(2′-Fluoro-2-methyl-[1,1′-biphenyl]-3-yl)-2-methoxypyridin-3-yl)methyl)amino)propenamide], the “increase in activity as compared with A4” value at PD-1/PD-L1 interaction (HTRF IC50 ratio) is “more than 23 fold”. For the same compound, the pIC50 on PD-1/PD-L1 interaction (HTRF, two independent experiments) was 9.03. Besides, the LE on PD-1/PD-L1 interaction (LE = −1.35 logIC50/Nheavy atoms (HTRF IC50)) was 0.43; at hPD-L1 (LE = -1.35log KD/Nheavy atoms (SPR KD)) it was 0.40. Moreover, the EC50 was 11.1 µM in the series with MDA-MB-231 cells (Homo sapiens, MDA-MB-231, 48 h, read-out: EC50 (μM)/MDA-MB-231 Toxicity) and 7.6 µM in the series with Jurkat T cells (Homo sapiens, Jurkat, MTT, 48 h, read-out: EC50 (μM)/Jurkat Toxicity). Also, the “direct killing of tumor cells” value with MDA-MB-231 cells (as shown in Table 3) is reported as “do not directly kill tumor cells”. The solubility in “Water solubility by HPLC” was found to be 126 µg/mL (≈ 321 µM). Further, the “KD compared with that of A15” value at hPD-L1 (SPR KD ratio) was 5 fold. Besides, the kon on hPD-L1 (SPR association rate, read-out: Ka (M-1s-1) / Kon) is 538000 M⁻¹ s⁻¹. Further, the koff at hPD-L1 (SPR dissociation rate, read-out: Kd (s-1) / Koff) was 0.00196 s⁻¹. On hPD-L1 (SPR, 25 °C, 1:1 binding model), the pKd is 8.44. In addition, the “IFN-γ production / release” value in series [1] (72 h co-culture, ELISA, dose response) is on record as “promote the dose-dependent release of IFN-γ; also recorded: significantly promote the production of IFN-γ in a dose-dependent manner; also recorded: potently induces the release of IFN-γ”. For the same compound, the “promoting effect on IFN-γ production compared with BMS-202” value in series [1] (A9 at 5 μM) is given as “significantly higher than that of BMS-202”. In series [1] (A9 at 5 μM vs Keytruda at 5 μg/mL), the “promoting effect on IFN-γ production compared with Keytruda” value was “comparable promoting effect on production of INF-γ; also recorded: comparable to that of Keytruda at 5 μg/mL”. Further, in the series on Jurkat T cells (regular concentrations within 48 h), the “immune toxicity in Jurkat T cells” value is “lower cell toxicity”.

In general, pIC50 refers to the negative decadic logarithm of the IC50, by convention in mol/L. Broadly, the solubility is how much of the substance goes into solution per volume. Low values mean little dissolved substance, high ones much dissolved substance. In general, pKd refers to the negative decadic logarithm of the Kd, by convention in mol/L. High values mean a low Kd, low ones a high Kd.
